Here are results for five compounds from patent US20240409585A1, “MACROCYCLIC IMMUNOMODULATORS” (priority 2021, published 2024).

The target in assay [1] is T1, PE-labeled human PD-L1-Ig binding to Jurkat cell line over-expressing human PD-1 (Jurkat-PD-1) (Homo sapiens, UniProt Q15116).
T1 construct: expressed in transfected cells; host or cells: Jurkat
Briefly: Jurkat-PD-1 Cell Binding High-Content Screening Assay (CBA): Method 1. The settings on record: Jurkat-PD-1 cells, PE-labeled PD-L1-Ig; μM; read-out: CBA Method 1 μM.

Assay [2] deals with T1, PE-labeled human PD-L1-Ig binding to Jurkat cell line over-expressing human PD-1 (Jurkat-PD-1). The assay can be described thus: Jurkat-PD-1 Cell Binding High-Content Screening Assay (CBA): Method 2 (presence and absence of tween-20). Conditions: Jurkat-PD-1 cells, PE-labeled PD-L1-Ig 20 nM; presence or absence of tween-20 not given; head μM; read-out: CBA Method 2 μM. The essentials: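 Compounds incubated with Jurkat cells overexpressing human PD-1 for 2 h at 37° C, tested with and without tween-20 to flag aggregation. PE-labeled human PD-L1-Ig (20 nM final) added in DMEM/10% FCS; binding read by high-content imaging.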

Numbered stars: 1 amine (or outer) side, 2 acyl side, 3 side chain; on linkers, the order of the positions; unused ones are H or OH. Bridge positions count the residues as written; N and C are the ends. Square brackets hold non-standard residues; d marks the D form. Peptide text beside a SMILES is read from it. * marks the point of attachment. Bip(4'-COOH) = N[C@@H](Cc1ccc(-c2ccc(C(=O)O)cc2)cc1)C(=O)O; X3 = CC(=O)NCc1cccc(C[C@H](N[*:1])C(=O)[*:2])c1; Ala(morpholin-4-yl) = N[C@@H](CN1CCOCC1)C(=O)O; Phe(4-COOH) = N[C@@H](Cc1ccc(C(=O)O)cc1)C(=O)O; X4 = O=C([C@H](Cc1ccc2cc[nH]c2c1)N[*:1])[*:2]; Bip = N[C@@H](Cc1ccc(-c2ccccc2)cc1)C(=O)O; Phe(3-CN) = N#Cc1cccc(C[C@H](N)C(=O)O)c1; Phe(3-OMe) = COc1cccc(C[C@H](N)C(=O)O)c1; Phe(3-F) = N[C@@H](Cc1cccc(F)c1)C(=O)O; Phe(3-Me) = Cc1cccc(C[C@H](N)C(=O)O)c1; Cha = N[C@@H](CC1CCCCC1)C(=O)O; Carboxymethyl = O=C(O)C*; NMeA = CN[C@@H](C)C(=O)O; Orn = NCCC[C@H](N)C(=O)O; Dab = NCC[C@H](N)C(=O)O

T1 sequence (Q15116 25-288): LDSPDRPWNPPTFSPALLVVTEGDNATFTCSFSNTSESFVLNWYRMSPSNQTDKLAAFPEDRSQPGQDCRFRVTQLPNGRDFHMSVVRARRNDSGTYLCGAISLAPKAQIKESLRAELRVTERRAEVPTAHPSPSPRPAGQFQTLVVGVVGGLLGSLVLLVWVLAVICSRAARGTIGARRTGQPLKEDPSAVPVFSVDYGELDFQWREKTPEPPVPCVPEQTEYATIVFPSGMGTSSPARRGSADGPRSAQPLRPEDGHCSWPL

For `Cc1cccc(C[C@@H]2NC(=O)[C@H](CC(=O)O)NC(=O)[C@H](Cc3ccc(OCC(=O)O)cc3)NC(=O)[C@H](CN3CCOCC3)NC(=O)CSC[C@@H](C(=O)N[C@@H](CCN)C(N)=O)NC(=O)[C@H](CCCN)NC(=O)[C@H](C(C)C)NC(=O)[C@H](CC3CCCCC3)NC(=O)[C@H](CCN)NC(=O)[C@@H](CC(C)C)NC(=O)[C@H](C)N(C)C(=O)[C@H](CCC(N)=O)NC(=O)[C@H](Cc3ccc(-c4ccccc4)cc3)NC(=O)[C@H](Cc3cccc(C#N)c3)NC2=O)c1` [Example 5030] ({CH2CO}-[Ala(morpholin-4-yl)]Y(Carboxymethyl)D[Phe(3-Me)][Phe(3-CN)][Bip]Q[NMeA][dL][Dab][Cha]V[Orn]C[Dab]-NH2; thioether N-14), the IC50 in assay [1] amounted to 0.0047 µM; in assay [2], 0.0043 µM.
Consider `Cc1cccc(C[C@@H]2NC(=O)[C@H](CC(=O)O)NC(=O)[C@H](Cc3ccc(C(=O)O)cc3)NC(=O)[C@H](CC(C)C)NC(=O)CSC[C@@H](C(=O)N[C@@H](CCN)C(N)=O)NC(=O)[C@H](CCCN)NC(=O)[C@H](C(C)C)NC(=O)[C@H](Cc3cccc(F)c3)NC(=O)[C@H](CCN)NC(=O)[C@@H](CC(C)C)NC(=O)[C@H](C)N(C)C(=O)[C@H](CCC(N)=O)NC(=O)[C@H](Cc3ccc(-c4ccccc4)cc3)NC(=O)[C@H](Cc3ccc(-c4ccc(C(=O)O)cc4)cc3)NC2=O)c1` [Example 5064] ({CH2CO}-L[Phe(4-COOH)]D[Phe(3-Me)][Bip(4'-COOH)][Bip]Q[NMeA][dL][Dab][Phe(3-F)]V[Orn]C[Dab]-NH2; thioether N-14), for which the IC50 was determined as 0.0544 µM in assay [1] and 0.0348 µM in assay [2].
As for `COc1cccc(C[C@@H]2NC(=O)[C@H](CCN)NC(=O)[C@@H](CC(C)C)NC(=O)[C@H](C)N(C)C(=O)[C@H](CCC(N)=O)NC(=O)[C@H](Cc3ccc(-c4ccccc4)cc3)NC(=O)[C@H](Cc3ccc(C(=O)O)cc3)NC(=O)[C@H](Cc3cccc(C)c3)NC(=O)[C@H](CC(=O)O)NC(=O)[C@H](Cc3ccc(OCC(=O)O)cc3)NC(=O)[C@H](CN3CCOCC3)NC(=O)CSC[C@@H](C(=O)N[C@@H](CCN)C(N)=O)NC(=O)[C@H](CCCN)NC(=O)[C@H](C(C)C)NC2=O)c1` [Example 5043] ({CH2CO}-[Ala(morpholin-4-yl)]Y(Carboxymethyl)D[Phe(3-Me)][Phe(4-COOH)][Bip]Q[NMeA][dL][Dab][Phe(3-OMe)]V[Orn]C[Dab]-NH2; thioether N-14), the IC50 in assay [1] and in assay [2] was 0.0098 µM each time.
In the case of `Cc1cccc(C[C@@H]2NC(=O)[C@H](CC(=O)O)NC(=O)[C@H](Cc3ccc(OCC(=O)O)cc3)NC(=O)[C@H](CN3CCOCC3)NC(=O)CSC[C@@H](C(=O)N[C@@H](CCN)C(N)=O)NC(=O)[C@H](CCCN)NC(=O)[C@H](C(C)C)NC(=O)[C@H](CC3CCCCC3)NC(=O)[C@H](CCN)NC(=O)[C@@H](CC(C)C)NC(=O)[C@H](C)N(C)C(=O)[C@H](CCC(N)=O)NC(=O)[C@H](Cc3ccc(-c4ccccc4)cc3)NC(=O)[C@H](Cc3ccc4cc[nH]c4c3)NC2=O)c1` [Example 5037] ({CH2CO}-[Ala(morpholin-4-yl)]Y(Carboxymethyl)D[Phe(3-Me)][X4][Bip]Q[NMeA][dL][Dab][Cha]V[Orn]C[Dab]-NH2; thioether N-14), the values for the IC50 in assay [1] and in assay [2] were 0.0138 µM and 0.0304 µM, respectively.
Take `CC(=O)NCc1cccc(C[C@@H]2NC(=O)CSC[C@@H](C(=O)N[C@@H](CCN)C(N)=O)NC(=O)[C@H](CCCN)NC(=O)[C@H](C(C)C)NC(=O)[C@H](CC3CCCCC3)NC(=O)[C@H](CCN)NC(=O)[C@@H](CC(C)C)NC(=O)[C@H](C)N(C)C(=O)[C@H](CCC(N)=O)NC(=O)[C@H](Cc3ccc(-c4ccccc4)cc3)NC(=O)[C@H](Cc3ccc(C(=O)O)cc3)NC(=O)[C@H](Cc3cccc(C)c3)NC(=O)[C@H](CC(=O)O)NC(=O)[C@H](Cc3ccc(OCC(=O)O)cc3)NC2=O)c1` [Example 5033] ({CH2CO}-[X3]Y(Carboxymethyl)D[Phe(3-Me)][Phe(4-COOH)][Bip]Q[NMeA][dL][Dab][Cha]V[Orn]C[Dab]-NH2; thioether N-14): the IC50 in assay [1] amounted to 0.0032 µM; in assay [2], 0.0033 µM.
